The structures appear in SMILES notation. Starred links: 1 amine or outer side, 2 acyl side, 3 side chain; linkers in the order of their positions; H or OH if unused. Positions of bridges follow the written chain, without caps; N, C: chain ends. Non-standard residues stand in square brackets, D forms with d. Residues, ends and D or L forms follow the SMILES beside them. Adda = CO[C@@H](Cc1ccccc1)[C@@H](C)/C=C(C)/C=C/[C@H](N[*:1])[C@H](C)C(=O)[*:2]; dAsp(3S-Me) = C[C@H](C(=O)[*:3])[C@@H](N[*:1])C(=O)[*:2]; d(γGlu) = O=C(O)[C@@H](CCC(=O)[*:2])N[*:1]; NMeDha = C=C(NC)C(=O)O

The first series concerns Hepatotoxicity. The series can be described thus: Human drug-induced liver injury (DILI) modelling dataset from Ekins et al.
Settings: not given
For the compound `Cc1ccc(Cl)c(Nc2ccccc2C(=O)[O-])c1Cl.O.[Na+]` [MECLOFENAMATE SODIUM], the Hepatotoxicity entry is “DILI positive (training set)”.

As for `CC(=O)O[C@]1(C(C)=O)CC[C@H]2[C@@H]3C[C@H](C)C4=CC(=O)CC[C@]4(C)[C@H]3CC[C@@]21C` [MEDROXYPROGESTERONE ACETATE], the Hepatotoxicity entry was “DILI negative (training set)”.

On to `COc1ccc2[nH]cc(CCNC(C)=O)c2c1` [MELATONIN], for which the Hepatotoxicity result is recorded as “DILI negative (training set)”.

`Cc1cnc(NC(=O)C2=C(O)c3ccccc3S(=O)(=O)N2C)s1` [MELOXICAM]: the Hepatotoxicity entry is listed as “DILI negative (test set)”.

With `CC12CC3CC(C)(C1)CC(N)(C3)C2` [MEMANTINE], the Hepatotoxicity result was “DILI negative (training set)”.

Regarding `CC1=CC(=O)c2ccccc2C1=O` [MENADIONE], the Hepatotoxicity entry is “DILI positive (test set)”.

Regarding `CCC1(c2ccccc2)C(=O)NC(=O)N(C)C1=O` (stereo unspecified) [MEPHOBARBITAL], the Hepatotoxicity result was “DILI positive (test set)”.

For `CCCC(C)(COC(N)=O)COC(N)=O` [MEPROBAMATE], the Hepatotoxicity result is recorded as “DILI positive (test set)”.

In the case of `C#C[C@]1(O)CC[C@H]2[C@@H]3CCc4cc(OC)ccc4[C@H]3CC[C@@]21C` [MESTRANOL], the Hepatotoxicity entry is on record as “DILI positive (test set)”.

As for `CC(=O)Nc1cccc(O)c1` [METACETAMOL], the Hepatotoxicity entry is “DILI negative (training set)”.

For the compound `CC(C)NCC(O)c1cc(O)cc(O)c1.CC(C)NCC(O)c1cc(O)cc(O)c1.O=S(=O)(O)O` (stereo unspecified) [METAPROTERENOL SULFATE], the Hepatotoxicity result is recorded as “DILI positive (training set)”.

Consider `C=C1c2cccc(O)c2C(=O)C2=C(O)[C@]3(O)C(=O)C(C(N)=O)=C(O)[C@@H](N(C)C)[C@@H]3[C@@H](O)[C@H]12.Cl` [METHACYCLINE HYDROCHLORIDE], for which the Hepatotoxicity result is listed as “DILI positive (training set)”.

Regarding `CN(Cc1cnc2nc(N)nc(N)c2n1)c1ccc(C(=O)N[C@@H](CCC(=O)O)C(=O)O)cc1` [METHOTREXATE], the Hepatotoxicity entry is “DILI positive (training set)”.

Turning to `COc1ccc(OC)c(C(O)C(C)N)c1.Cl` (stereo unspecified) [METHOXAMINE HYDROCHLORIDE], the Hepatotoxicity result is reported as “DILI negative (training set)”.

As to `COCC(=O)O` [METHOXYACETIC ACID], the Hepatotoxicity entry is reported as “DILI positive (test set)”.

As for `C[C@](N)(Cc1ccc(O)c(O)c1)C(=O)O` [METHYLDOPA], the Hepatotoxicity result is reported as “DILI positive (test set)”.

Consider `CC[C@@H](CO)NC(=O)[C@@H]1C=C2c3cccc4[nH]cc(c34)C[C@H]2N(C)C1.O=C(O)/C=C\C(=O)O` [METHYLERGONOVINE MALEATE], for which the Hepatotoxicity entry is recorded as “DILI negative (training set)”.

`COC(=O)C(c1ccccc1)C1CCCCN1` (stereo unspecified) [METHYLPHENIDATE]: the Hepatotoxicity entry is reported as “DILI positive (test set)”.

In the case of `CC[C@@H](CO)NC(=O)[C@@H]1C=C2c3cccc4c3c(cn4C)C[C@H]2N(C)C1.O=C(O)/C=C\C(=O)O` [METHYSERGIDE MALEATE], the Hepatotoxicity entry is given as “DILI negative (training set)”.

Consider `Cc1ccccc1N1C(=O)c2cc(S(N)(=O)=O)c(Cl)cc2NC1C` (stereo unspecified) [METOLAZONE], for which the Hepatotoxicity result is on record as “DILI positive (test set)”.

For `Cc1ncc([N+](=O)[O-])n1CCO` [METRONIDAZOLE], the Hepatotoxicity result is given as “DILI positive (training set)”.

On to `CN1CCN2c3ccccc3Cc3ccccc3C2C1` (stereo unspecified) [MIANSERIN], for which the Hepatotoxicity result was “DILI positive (test set)”.

With `COCC(=O)O[C@]1(CCN(C)CCCc2nc3ccccc3[nH]2)CCc2cc(F)ccc2[C@@H]1C(C)C` [MIBEFRADIL], the Hepatotoxicity result was “DILI negative (test set)”.

Regarding `Clc1ccc(COC(Cn2ccnc2)c2ccc(Cl)cc2Cl)c(Cl)c1` (stereo unspecified) [MICONAZOLE], the Hepatotoxicity result is “DILI negative (training set)”.

Turning to `C=C1C(=O)N[C@H](C)C(=O)N[C@@H](CC(C)C)C(=O)N[C@@H](C(=O)O)[C@H](C)C(=O)N[C@@H](CCCNC(=N)N)C(=O)N[C@@H](/C=C/C(C)=C/[C@H](C)[C@H](Cc2ccccc2)OC)[C@H](C)C(=O)N[C@@H](C(=O)O)CCC(=O)N1C` [MICROCYSTIN-LR] (R[Adda][d(γGlu)][NMeDha][dA]L[dAsp(3S-Me)]-OH; lactam N-7), the Hepatotoxicity entry is “DILI positive (test set)”.

Regarding `CN(C)c1ccc(O)c2c1C[C@H]1C[C@H]3[C@H](N(C)C)C(O)=C(C(N)=O)C(=O)[C@@]3(O)C(O)=C1C2=O.Cl` [MINOCYCLINE HYDROCHLORIDE], the Hepatotoxicity result is “DILI positive (test set)”.

Take `Cl.Cl.O=C1c2c(O)ccc(O)c2C(=O)c2c(NCCNCCO)ccc(NCCNCCO)c21` [MITOXANTRONE HYDROCHLORIDE]: the Hepatotoxicity result is reported as “DILI positive (training set)”.

In the case of `CCc1c(C)[nH]c2c1C(=O)C(CN1CCOCC1)CC2.Cl` (stereo unspecified) [MOLINDONE HYDROCHLORIDE], the Hepatotoxicity entry was “DILI positive (training set)”.

In the case of `C[C@@H]1C[C@H]2[C@@H]3CCC4=CC(=O)C=C[C@]4(C)[C@@]3(Cl)[C@@H](O)C[C@]2(C)[C@@]1(OC(=O)c1ccco1)C(=O)CCl` [MOMETASONE FUROATE], the Hepatotoxicity result was “DILI negative (test set)”.

In the case of `C[C@H]1C(=O)O[C@@H]2CCN3CC=C(COC(=O)[C@](C)(O)[C@]1(C)O)[C@H]23` [MONOCROTALINE], the Hepatotoxicity result is “DILI positive (training set)”.

`CC(C)(O)c1ccccc1CC[C@@H](SCC1(CC(=O)O)CC1)c1cccc(/C=C/c2ccc3ccc(Cl)cc3n2)c1` [MONTELUKAST]: the Hepatotoxicity entry is “DILI negative (training set)”.

Take `CCOC(=O)Nc1ccc2c(c1)N(C(=O)CCN1CCOCC1)c1ccccc1S2.Cl` [MORICIZINE HYDROCHLORIDE]: the Hepatotoxicity entry is on record as “DILI positive (test set)”.

Regarding `CO[C@@]1(NC(=O)C(C(=O)[O-])c2ccc(O)cc2)C(=O)N2C(C(=O)[O-])=C(CSc3nnnn3C)CO[C@@H]21.[Na+].[Na+]` (stereo partly specified) [MOXALACTAM DISODIUM], the Hepatotoxicity result was “DILI negative (test set)”.

Turning to `CN(C)N=O` [N-NITROSODIMETHYLAMINE], the Hepatotoxicity entry was “DILI positive (test set)”.

In the case of `CC(C)(C)NCC(O)COc1cccc2c1CC(O)C(O)C2` (stereo unspecified) [NADOLOL], the Hepatotoxicity result was “DILI negative (training set)”.

On to `CCOc1ccc2ccccc2c1C(=O)N[C@@H]1C(=O)N2[C@@H]1SC(C)(C)[C@@H]2C(=O)[O-].O.[Na+]` [NAFCILLIN SODIUM], for which the Hepatotoxicity entry was “DILI negative (test set)”.

`CCn1cc(C(=O)O)c(=O)c2ccc(C)nc21` [NALIDIXIC ACID]: the Hepatotoxicity entry is listed as “DILI positive (training set)”.

Consider `O=C1CC[C@@]2(O)[C@H]3Cc4ccc(O)c5c4[C@@]2(CCN3CC2CC2)[C@H]1O5` [NALTREXONE], for which the Hepatotoxicity result is listed as “DILI positive (training set)”.

For `CCc1nn(CCCN2CCN(c3cccc(Cl)c3)CC2)c(=O)n1CCOc1ccccc1` [NEFAZODONE], the Hepatotoxicity result is reported as “DILI positive (test set)”.

Turning to `COC(=O)C1=C(C)NC(C)=C(C(=O)OCCN(C)Cc2ccccc2)C1c1cccc([N+](=O)[O-])c1.Cl` (stereo unspecified) [NICARDIPINE HYDROCHLORIDE], the Hepatotoxicity result is “DILI positive (training set)”.

`COC(=O)C1=C(C)NC(C)=C(C(=O)OC)C1c1ccccc1[N+](=O)[O-]` [NIFEDIPINE]: the Hepatotoxicity entry is reported as “DILI positive (training set)”.

For `COCCOC(=O)C1=C(C)NC(C)=C(C(=O)OC(C)C)C1c1cccc([N+](=O)[O-])c1` (stereo unspecified) [NIMODIPINE], the Hepatotoxicity result is “DILI positive (training set)”.

Turning to `COC(=O)C1=C(C)NC(C)=C(C(=O)OCC(C)C)C1c1ccccc1[N+](=O)[O-]` (stereo unspecified) [NISOLDIPINE], the Hepatotoxicity result is “DILI negative (training set)”.

Consider `COC(=O)Nc1nc2ccc(C(=O)c3cccs3)cc2[nH]1` [NOCODAZOLE], for which the Hepatotoxicity entry was “DILI negative (training set)”.

As for `CN1Cc2c(N)cccc2C(c2ccccc2)C1` (stereo unspecified) [NOMIFENSINE], the Hepatotoxicity result was “DILI positive (training set)”.

For the compound `CO[C@@H]1[C@@H](OC(N)=O)[C@@H](O)[C@H](Oc2ccc3c(O)c(NC(=O)c4ccc(O)c(CC=C(C)C)c4)c(=O)oc3c2C)OC1(C)C` [NOVOBIOCIN], the Hepatotoxicity entry is “DILI positive (training set)”.

Take `CCCCC(CC)COC(=O)C=Cc1ccc(OC)cc1` (stereo unspecified) [OCTINOXATE]: the Hepatotoxicity entry is on record as “DILI positive (test set)”.

Consider `CCCc1nc(C(C)(C)O)c(C(=O)O)n1Cc1ccc(-c2ccccc2-c2nnn[nH]2)cc1` [OLMESARTAN], for which the Hepatotoxicity result is listed as “DILI negative (test set)”.

As for `Cc1ccccc1C(OCCN(C)C)c1ccccc1.O=C(O)CC(O)(CC(=O)O)C(=O)O` (stereo unspecified) [ORPHENADRINE CITRATE], the Hepatotoxicity entry was “DILI negative (training set)”.

In the case of `O=C(O)CCc1nc(-c2ccccc2)c(-c2ccccc2)o1` [OXAPROZIN], the Hepatotoxicity result is “DILI positive (test set)”.

For the compound `CCCOc1ccc2nc(NC(=O)OC)[nH]c2c1` [OXIBENDAZOLE], the Hepatotoxicity result was “DILI positive (training set)”.

In the case of `CC[N+](C)(CC)CCOC(=O)C(O)(c1ccccc1)C1CCCCC1` (stereo unspecified) [OXYPHENONIUM], the Hepatotoxicity result is reported as “DILI negative (training set)”.

The same series, now with this note: Liver.
As to `Cc1cccc(Nc2ccccc2C(=O)O)c1C` [MEFENAMIC ACID], the Hepatotoxicity result is on record as “DILI positive (training set)”.

For `CN1CCCCC1CCN1c2ccccc2Sc2ccc([S+](C)[O-])cc21.O=S(=O)(O)c1ccccc1` (stereo unspecified) [MESORIDAZINE BESYLATE], the Hepatotoxicity entry is listed as “DILI positive (training set)”.

As to `CN(C)C(=N)N=C(N)N` [METFORMIN], the Hepatotoxicity entry is given as “DILI negative (test set)”.

`CC1(C)S[C@@H]2[C@H](NC(=O)[C@H](NC(=O)N3CCN(S(C)(=O)=O)C3=O)c3ccccc3)C(=O)N2[C@H]1C(=O)[O-].[Na+]` [MEZLOCILLIN SODIUM]: the Hepatotoxicity entry is “DILI positive (test set)”.

With `COc1ccc2cc([C@H](C)C(=O)O)ccc2c1` [NAPROXEN], the Hepatotoxicity entry is “DILI negative (test set)”.

Take `O=C1CN(/N=C/c2ccc([N+](=O)[O-])o2)C(=O)N1` [NITROFURANTOIN]: the Hepatotoxicity entry was “DILI positive (test set)”.

With `C#CC1(O)CC[C@H]2[C@@H]3CCC4=CC(=O)CC[C@@H]4[C@H]3CC[C@@]21CC` (stereo partly specified) [NORGESTREL], the Hepatotoxicity result is “DILI positive (training set)”.

In the case of `CNCCC=C1c2ccccc2CCc2ccccc21.Cl` [NORTRIPTYLINE HYDROCHLORIDE], the Hepatotoxicity entry is listed as “DILI positive (training set)”.

Regarding `O=S(=O)(O)O.Oc1cccc2cccnc12.Oc1cccc2cccnc12` [OXYQUINOLINE SULFATE], the Hepatotoxicity result is recorded as “DILI positive (test set)”.

The values above are taken from ChEMBL document CHEMBL1697723, “A predictive ligand-based Bayesian model for human drug-induced liver injury” (Drug Metab Dispos, 2010).
